Reference: ChEMBL document CHEMBL1201862, “PubChem BioAssay data set” (2004)
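Each compound was tested at five concentrations against cells in 96-well plates for 48 hours. GI50: concentration for 50% inhibition of growth.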 Calls of active or inactive are those of the source. Rule as the data show it: active = GI50 up to about 1.1 µM and inactive = higher.

Legend:
Assay in all cases: NCI tumour cell line growth inhibition, 48 h
HT-29 = system: HT-29
UACC-62 = system: UACC-62
SW-620 = system: SW-620
NCI-H23 = system: NCI-H23
LOX IMVI = system: LOX IMVI
MDA-MB-435 = system: MDA-MB-435
MDA-MB-231 = system: MDA-MB-231
TK-10 = system: TK-10
SF-295 = system: SF-295
NCI/ADR-RES = system: NCI/ADR-RES
ACHN = system: ACHN
SF-539 = system: SF-539
SNB-75 = system: SNB-75
IGROV-1 = system: IGROV-1
DU-145 = system: DU-145
MOLT-4 = system: MOLT-4
Malme-3M = system: Malme-3M
OVCAR-8 = system: OVCAR-8
MCF7 = system: MCF7
SK-MEL-2 = system: SK-MEL-2

Measured: GI50

N#Cc1c(NC(=S)NC(=O)c2ccccc2)nc2c(c1-c1ccccc1)CCC2
inactive: HT-29 > 100 µM | UACC-62 > 100 µM | SW-620 > 100 µM | NCI-H23 > 100 µM | LOX IMVI > 100 µM | MDA-MB-435 > 100 µM | MDA-MB-231 43.9 µM | TK-10 91 µM | SF-295 91.2 µM | NCI/ADR-RES > 100 µM | ACHN > 100 µM | SF-539 > 100 µM | SNB-75 22.7 µM | IGROV-1 > 100 µM | DU-145 > 100 µM | MOLT-4 58.1 µM | Malme-3M 78.7 µM | OVCAR-8 67 µM | MCF7 > 10 µM

Cc1ccc(C2C(C(=O)C(C)(C)C)N2S(=O)(=O)c2ccc(C)cc2)cc1 (stereo not given)
inactive: HT-29 24.3 µM | UACC-62 15.8 µM | SW-620 26.8 µM | NCI-H23 23.7 µM | LOX IMVI 22.4 µM | MDA-MB-435 20.9 µM | MDA-MB-231 19.8 µM | TK-10 28.6 µM | SF-295 41.6 µM | NCI/ADR-RES 23.4 µM | SF-539 14.9 µM | SNB-75 19.5 µM | IGROV-1 17.5 µM | SK-MEL-2 46.6 µM | DU-145 18.7 µM | Malme-3M 23.2 µM | OVCAR-8 21.3 µM | MCF7 23.8 µM

O=c1c(C(c2ccc(Cl)cc2)c2c(O)c3ccccc3n(-c3ccccc3)c2=O)c(O)c2ccccc2n1-c1ccccc1
inactive: UACC-62 13.3 µM | SW-620 34 µM | NCI-H23 11.1 µM | LOX IMVI 18.8 µM | TK-10 67.8 µM | SF-295 14.4 µM | ACHN 7.67 µM | SF-539 19.1 µM | IGROV-1 > 100 µM | SK-MEL-2 19.5 µM | MOLT-4 4.45 µM | Malme-3M 21.9 µM | OVCAR-8 29.4 µM
